Results as given in ChEMBL document CHEMBL3046829, “Design, synthesis, and structureactivity relationship study of 5-amido-1-(2,4-dinitrophenyl)-1H-4-pyrazolecarbonitrils as DD-carboxypeptidase/penicillin-binding protein inhibitors with Gram-positive antibacterial activity” (2010).
≈ marks a conversion by molar mass, not a printed value. Calls of active or inactive are those of the source. No cut-off for these calls is given here.

Key:
[1] = system: Staphylococcus aureus; assay: Antibacterial activity against methicillin-resistant Staphylococcus aureus after 18 hr by NCCLS dilution tube method; format: functional
[2] = system: Staphylococcus aureus; assay: Antibacterial activity against methicillin-susceptible Staphylococcus aureus ATCC 1112 after 18 hr by NCCLS dilution tube method; format: functional; settings: for MIC: ATCC 1112, 18 h
[3] = system: Pseudomonas aeruginosa; assay: Antibacterial activity against Pseudomonas aeruginosa at > 1000 uM after 18 hr by NCCLS dilution tube method; format: functional, organism-based
[4] = system: Streptococcus pyogenes; assay: Antibacterial activity against Streptococcus pyogenes after 18 hr by NCCLS dilution tube method; format: functional
[5] = system: Streptococcus pneumoniae; assay: Antibacterial activity against Streptococcus pneumoniae after 18 hr by NCCLS dilution tube method; format: functional
[6] = system: Klebsiella pneumoniae; assay: Antibacterial activity against Klebsiella pneumoniae at > 1000 uM after 18 hr by NCCLS dilution tube method; format: functional, organism-based
[7] = system: Pseudomonas aeruginosa; assay: Antibacterial activity against Pseudomonas aeruginosa after 18 hr by NCCLS dilution tube method; format: functional
[8] = system: Klebsiella pneumoniae; assay: Antibacterial activity against Klebsiella pneumoniae after 18 hr by NCCLS dilution tube method; format: functional

SMILES | MIC [1] [µM] | MIC [2] [µM] | also measured
CC1=C(C(=O)O)N2C(=O)[C@@H](NC(=O)[C@H](N)c3ccccc3)[C@H]2SC1 [CEPHALEXIN ANHYDROUS] | 72 (≈ 25 µg/mL) | 4.6 (≈ 1.6 µg/mL) | –
N#Cc1cnn(-c2ccc([N+](=O)[O-])cc2[N+](=O)[O-])c1NC(=O)c1ccc(Br)cc1 | 27.4 (≈ 12.5 µg/mL) | 27.4 (≈ 12.5 µg/mL) | –
Cc1ccc(C(=O)Nc2c(C#N)cnn2-c2ccc([N+](=O)[O-])cc2[N+](=O)[O-])cc1 | 63.8 (≈ 25 µg/mL) | 60.5 (≈ 23.7 µg/mL) | –
CC(=O)Nc1c(C#N)cnn1-c1ccc([N+](=O)[O-])cc1[N+](=O)[O-] | 632 (≈ 200 µg/mL) | 316 (≈ 99.9 µg/mL) | Activity [3]: inactive; MIC [4]: 100 µg/mL (≈ 316 µM); MIC [5]: 100 µg/mL (≈ 316 µM); Activity [6]: inactive
CN(C)c1ccc(C(=O)Nc2c(C#N)cnn2-c2ccc([N+](=O)[O-])cc2[N+](=O)[O-])cc1 | 3.8 (≈ 1.6 µg/mL) | 3.8 (≈ 1.6 µg/mL) | –
N#Cc1cnn(-c2ccc([N+](=O)[O-])cc2[N+](=O)[O-])c1NC(=O)c1ccc(Cl)cc1 | 60.5 (≈ 25 µg/mL) | 15.3 (≈ 6.32 µg/mL) | –
Cc1onc(-c2ccccc2Cl)c1C(=O)N[C@@H]1C(=O)N2[C@@H]1SC(C)(C)[C@@H]2C(=O)O [CLOXACILLIN] | 94 (≈ 41 µg/mL) | 13.7 (≈ 5.97 µg/mL) | –
N#Cc1cnn(-c2ccc([N+](=O)[O-])cc2[N+](=O)[O-])c1NC(=O)c1ccc(F)cc1 | 252 (≈ 100 µg/mL) | 126 (≈ 50.1 µg/mL) | –
COc1ccc(C(=O)Nc2c(C#N)cnn2-c2ccc([N+](=O)[O-])cc2[N+](=O)[O-])cc1 | 15.3 (≈ 6.25 µg/mL) | 31.9 (≈ 13 µg/mL) | –
N#Cc1cnn(-c2ccc([N+](=O)[O-])cc2[N+](=O)[O-])c1NC(=O)C1CCCCC1 | 391 (≈ 150 µg/mL) | 195 (≈ 75.1 µg/mL) | Activity [3]: inactive; Activity [6]: inactive
N#Cc1cnn(-c2ccc([N+](=O)[O-])cc2[N+](=O)[O-])c1N | – | – | Activity [2]: inactive; Activity [4]: inactive; Activity [5]: inactive
N#Cc1cnn(-c2ccc([N+](=O)[O-])cc2[N+](=O)[O-])c1NC(=O)C12CC3CC(CC(C3)C1)C2 | 57.4 (≈ 25.1 µg/mL) | 57.4 (≈ 25.1 µg/mL) | MIC [7]: > 300 µM; MIC [8]: > 300 µM
N#Cc1cnn(-c2ccc([N+](=O)[O-])cc2[N+](=O)[O-])c1NC(=O)c1ccccc1 | 264 (≈ 100 µg/mL) | 132 (≈ 50 µg/mL) | Activity [3]: inactive; Activity [6]: inactive
